According to patent publication US20070082880A1 (priority 2005, published 2007):

Target: T1, human PKCθ full length enzyme (Homo sapiens, UniProt Q04759)
T1 construct: human PKCθ full length enzyme (Panvera Catalog No. P2996); purchased Panvera P2996
Experiment: PKCθ IMAP Assay
Type: biochemical
Settings: average value when one or more samples were tested; ATP 6 uM, PKCθ 1 nM
Protocol: The materials used include the following: human PKCθ full length enzyme (Panvera Catalog No. P2996); substrate peptide: 5FAM-[…]-OH (Molecular Devices, RP7032); ATP (Sigma Cat # A2383); DTT (Pierce, 20291); 5× kinase reaction buffer (Molecular Devices, R7209); 5× binding buffer A (Molecular Devices, R7282), 5× binding buffer B (Molecular Devices, R7209); IMAP Beads (Molecular Devices, R7284); and 384-well plates (Corning Costar, 3710).
The reaction buffer was prepared by diluting the 5× stock reaction buffer and adding DTT to obtain a concentration of 3.0 mM. The binding buffer was prepared by diluting the 5× binding buffer A. A master mix solution was prepared using a 90% dilution of the reaction buffer containing 2×ATP (12 uM) and 2× peptide ([…]). […] The final concentration of compound was 2× and 10% DMSO. DMSO was added to the rest of the master mix to increase the concentration to 10%. 10 ul of the master mix containing 10% DMSO was added to the rest of the wells on the plate except the 2nd column. 20 ul was transferred from the first column to the 2nd column. The compounds were serially diluted in 2:1 ratio starting from the 2nd column. A 2× (2 nM) PKCθ solution was made in the reaction buffer. 10 ul of the PKCθ solution was added to every well to achieve these final concentrations: PKCθ—1 nM; ATP—6 uM; peptide—100 nM; DMSO—5%. Samples were incubated for 25 minutes at room temperature. The binding reagent was prepared by diluting the beads in 1× binding buffer to 800:1. 50 ul of the binding reagent was added to every well and incubated for 20 minutes. FP was measured using Envision2100 (PerkinElmer Life Sciences). Wells with no ATPs and wells with no enzymes were used as controls.

T1 sequence (Q04759 whole entry): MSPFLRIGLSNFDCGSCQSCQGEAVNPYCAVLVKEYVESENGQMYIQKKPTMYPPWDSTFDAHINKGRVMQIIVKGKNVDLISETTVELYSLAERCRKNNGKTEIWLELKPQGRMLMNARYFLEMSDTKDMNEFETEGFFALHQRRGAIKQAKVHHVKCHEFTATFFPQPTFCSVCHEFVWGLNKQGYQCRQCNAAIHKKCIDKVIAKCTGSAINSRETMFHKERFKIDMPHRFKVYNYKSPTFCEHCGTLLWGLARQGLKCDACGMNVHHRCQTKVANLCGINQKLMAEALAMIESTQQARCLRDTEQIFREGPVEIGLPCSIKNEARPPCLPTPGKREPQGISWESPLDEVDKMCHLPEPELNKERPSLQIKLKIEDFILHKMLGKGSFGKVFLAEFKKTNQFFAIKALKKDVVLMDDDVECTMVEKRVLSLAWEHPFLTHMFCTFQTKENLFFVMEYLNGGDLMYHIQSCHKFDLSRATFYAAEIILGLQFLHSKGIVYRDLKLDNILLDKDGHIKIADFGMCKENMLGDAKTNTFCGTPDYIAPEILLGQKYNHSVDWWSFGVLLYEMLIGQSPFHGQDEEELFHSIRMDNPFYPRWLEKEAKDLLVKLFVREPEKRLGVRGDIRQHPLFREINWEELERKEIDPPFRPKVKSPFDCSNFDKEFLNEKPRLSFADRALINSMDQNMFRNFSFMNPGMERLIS

IC50 | Compound
370 nM | CN(C)c1ccc(-c2cc3c(Nc4ccc5[nH]ccc5c4)c(C#N)cnc3s2)cc1 [Compound 111, 2-[4-(dimethylamino)phenyl]-4-(1H-indol-5-ylamino)thieno[2,3-b]pyridine-5-carbonitrile]
14 nM | Cc1c(Nc2c(C#N)cnc3sc(-c4ccc(CN(C)C)cc4)cc23)ccc2[nH]ccc12 [Compound 113, 2-{4-[(dimethylamino)methyl]phenyl}-4-[(4-methyl-1H-indol-5-yl)amino]thieno[2,3-b]pyridine-5-carbonitrile]
570 nM | CN(C)Cc1ccccc1-c1cc2c(Nc3ccc4[nH]ccc4c3)c(C#N)cnc2s1 [Compound 114, 2-{2-[(dimethylamino)methyl]phenyl}-4-(1H-indol-5-ylamino)thieno[2,3-b]pyridine-5-carbonitrile]
38 nM | Cc1c(Nc2c(C#N)cnc3sc(-c4ccc(CN5CCN(C)CC5)cc4)cc23)ccc2[nH]ccc12 [Compound 121, 4-[(4-methyl-1H-indol-5-yl)amino]-2-{4-[(4-methylpiperazin-1-yl)methyl]phenyl}thieno[2,3-b]pyridine-5-carbonitrile]
> 55000 nM | CN(c1ccc2[nH]ccc2c1)c1c(C#N)cnc2sc(-c3ccccc3)cc12 [Compound 122, 4-[1H-indol-5-yl(methyl)amino]-2-phenylthieno[2,3-b]pyridine-5-carbonitrile]
830 nM | CCc1c(Nc2c(C#N)cnc3sc(-c4ccccc4)cc23)ccc2[nH]ccc12 [Compound 126, 4-[(4-ethyl-1H-indol-5-yl)amino]-2-phenylthieno[2,3-b]pyridine-5-carbonitrile]
550 nM | N#Cc1cnc2sc(-c3cccc(CN4CCOCC4)c3)cc2c1Nc1ccc2[nH]ccc2c1 [Compound 146, 4-(1H-indol-5-ylamino)-2-[3-(morpholin-4-ylmethyl)phenyl]thieno[2,3-b]pyridine-5-carbonitrile]
170 nM | CN(C)Cc1ccc(-c2cc3c(Nc4ccc5[nH]ccc5c4)c(C#N)cnc3s2)o1 [Compound 153, 2-{5-[(dimethylamino)methyl]-2-furyl}-4-(1H-indol-5-ylamino)thieno[2,3-b]pyridine-5-carbonitrile]
180 nM | CN(C)Cc1cc(-c2cc3c(Nc4ccc5[nH]ccc5c4)c(C#N)cnc3s2)co1 [Compound 154, 2-{5-[(dimethylamino)methyl]-3-furyl}-4-(1H-indol-5-ylamino)thieno[2,3-b]pyridine-5-carbonitrile]
38 nM | COc1ccc(CN(C)C)cc1-c1cc2c(Nc3ccc4[nH]ccc4c3)c(C#N)cnc2s1 [Compound 155, 2-{5-[(dimethylamino)methyl]-2-methoxyphenyl}-4-(1H-indol-5-ylamino)thieno[2,3-b]pyridine-5-carbonitrile]
93 nM | Cc1c(Nc2c(C#N)cnc3sc(-c4ccccc4CN(C)C)cc23)ccc2[nH]ccc12 [Compound 156, 2-{2-[(dimethylamino)methyl]phenyl}-4-[(4-methyl-1H-indol-5-yl)amino]thieno[2,3-b]pyridine-5-carbonitrile]
44 nM | N#Cc1cnc2sc(-c3csc(CN4CC[C@H](O)C4)c3)cc2c1Nc1ccc2[nH]ccc2c1 [Compound 157, 2-(5-{[(3S)-3-hydroxypyrrolidin-1-yl]methyl}-3-thienyl)-4-(1H-indol-5-ylamino)thieno[2,3-b]pyridine-5-carbonitrile]
57 nM | N#Cc1cnc2sc(-c3csc(CN4CCC[C@H]4CO)c3)cc2c1Nc1ccc2[nH]ccc2c1 [Compound 158, 2-(5-{[(2S)-2-(hydroxymethyl)pyrrolidin-1-yl]methyl}-3-thienyl)-4-(1H-indol-5-ylamino)thieno[2,3-b]pyridine-5-carbonitrile]
240 nM | N#Cc1cnc2sc(-c3cccc(CN4CCCC4)c3)cc2c1Nc1ccc2[nH]ccc2c1 [Compound 159, 4-(1H-indol-5-ylamino)-2-[3-(pyrrolidin-1-ylmethyl)phenyl]thieno[2,3-b]pyridine-5-carbonitrile]
360 nM | N#Cc1cnc2sc(-c3cccc(CN4CCCCC4)c3)cc2c1Nc1ccc2[nH]ccc2c1 [Compound 160, 4-(1H-indol-5-ylamino)-2-[3-(piperidin-1-ylmethyl)phenyl]thieno[2,3-b]pyridine-5-carbonitrile]
350 nM | CCN(CC)Cc1cccc(-c2cc3c(Nc4ccc5[nH]ccc5c4)c(C#N)cnc3s2)c1 [Compound 161, 2-{3-[(diethylamino)methyl]phenyl}-4-(1H-indol-5-ylamino)thieno[2,3-b]pyridine-5-carbonitrile]
270 nM | COCCN(C)Cc1cccc(-c2cc3c(Nc4ccc5[nH]ccc5c4)c(C#N)cnc3s2)c1 [Compound 162, 4-(1H-indol-5-ylamino)-2-(3-{[(2-methoxyethyl)(methyl)amino]methyl}phenyl)thieno[2,3-b]pyridine-5-carbonitrile]
130 nM | CN(C)CCN1CCN(Cc2cccc(-c3cc4c(Nc5ccc6[nH]ccc6c5)c(C#N)cnc4s3)c2)CC1 [Compound 163, 2-[3-({4-[2-(dimethylamino)ethyl]piperazin-1-yl}methyl)phenyl]-4-(1H-indol-5-ylamino)thieno[2,3-b]pyridine-5-carbonitrile]
88 nM | CN(CCO)Cc1cccc(-c2cc3c(Nc4ccc5[nH]ccc5c4)c(C#N)cnc3s2)c1 [Compound 164, 2-(3-{[(2-hydroxyethyl)(methyl)amino]methyl}phenyl)-4-(1H-indol-5-ylamino)thieno[2,3-b]pyridine-5-carbonitrile]
110 nM | COCCNCc1cccc(-c2cc3c(Nc4ccc5[nH]ccc5c4)c(C#N)cnc3s2)c1 [Compound 165, 4-(1H-indol-5-ylamino)-2-(3-{[(2-methoxyethyl)amino]methyl}phenyl)thieno[2,3-b]pyridine-5-carbonitrile]
160 nM | CN(C)CCNCc1cccc(-c2cc3c(Nc4ccc5[nH]ccc5c4)c(C#N)cnc3s2)c1 [Compound 166, 2-[3-({[2-(dimethylamino)ethyl]amino}methyl)phenyl]-4-(1H-indol-5-ylamino)thieno[2,3-b]pyridine-5-carbonitrile]
110 nM | N#Cc1cnc2sc(-c3cccc(CNCCCO)c3)cc2c1Nc1ccc2[nH]ccc2c1 [Compound 167, 2-(3-{[(3-hydroxypropyl)amino]methyl}phenyl)-4-(1H-indol-5-ylamino)thieno[2,3-b]pyridine-5-carbonitrile]
520 nM | N#Cc1cnc2sc(-c3cccc(CN4CCN(CC(=O)N5CCCC5)CC4)c3)cc2c1Nc1ccc2[nH]ccc2c1 [Compound 168, 4-(1H-indol-5-ylamino)-2-(3-{[4-(2-oxo-2-pyrrolidin-1-ylethyl)piperazin-1-yl]methyl}phenyl)thieno[2,3-b]pyridine-5-carbonitrile]
840 nM | N#Cc1cnc2sc(-c3cccc(CN4CCN(Cc5ccncc5)CC4)c3)cc2c1Nc1ccc2[nH]ccc2c1 [Compound 169, 4-(1H-indol-5-ylamino)-2-(3-{[4-(pyridin-4-ylmethyl)piperazin-1-yl]methyl}phenyl)thieno[2,3-b]pyridine-5-carbonitrile]
430 nM | N#Cc1cnc2sc(-c3cccc(CNCCN4CCOCC4)c3)cc2c1Nc1ccc2[nH]ccc2c1 [Compound 170, 4-(1H-indol-5-ylamino)-2-(3-{[(2-morpholin-4-ylethyl)amino]methyl}phenyl)thieno[2,3-b]pyridine-5-carbonitrile]
110 nM | N#Cc1cnc2sc(-c3cccc(CN4CC[C@H](O)C4)c3)cc2c1Nc1ccc2[nH]ccc2c1 [Compound 171, 2-(3-{[(3S)-3-hydroxypyrrolidin-1-yl]methyl}phenyl)-4-(1H-indol-5-ylamino)thieno[2,3-b]pyridine-5-carbonitrile]
69 nM | N#Cc1cnc2sc(-c3cccc(CN4CC[C@@H](O)C4)c3)cc2c1Nc1ccc2[nH]ccc2c1 [Compound 172, 2-(3-{[(3R)-3-hydroxypyrrolidin-1-yl]methyl}phenyl)-4-(1H-indol-5-ylamino)thieno[2,3-b]pyridine-5-carbonitrile]
130 nM | N#Cc1cnc2sc(-c3cccc(CN4CCCC(CO)C4)c3)cc2c1Nc1ccc2[nH]ccc2c1 (stereo not drawn) [Compound 173, 2-(3-{[3-(hydroxymethyl)piperidin-1-yl]methyl}phenyl)-4-(1H-indol-5-ylamino)thieno[2,3-b]pyridine-5-carbonitrile]
240 nM | N#Cc1cnc2sc(-c3cccc(CN4CCC(CO)CC4)c3)cc2c1Nc1ccc2[nH]ccc2c1 [Compound 174, 2-(3-{[4-(hydroxymethyl)piperidin-1-yl]methyl}phenyl)-4-(1H-indol-5-ylamino)thieno[2,3-b]pyridine-5-carbonitrile]

Compound | IC50
2-{3-[2-(dimethylamino)ethyl]phenyl}-4-(1H-indol-5-ylamino)thieno[2,3-b]pyridine-5-carbonitrile [Compound 112] | 69 nM
